Results taken from patent US7129250B2, “Neuroprotective and anti-proliferative compounds” (Aegera Therapeutics Inc., priority 2000, dated 2006).
Where “and” joins values, the source holds several entries; their conditions need not be identical. Equal values may be shown once.

Columns and labels:
Caspase 3 = Caspase 3 induction during HK/LK killing of CGNs; assay type: cell-based, CD1 mice
From the text: Caspase 3 induction ultimately leads to cell death and is observed in any number of neurodegenerative diseases. Compounds which inhibit caspase 3 induction represent potent therapies for various neurodegenerative diseases.

CGNs [1] = assay: β-Amyloid Aggregation Assay in CGNs; assay type: cell-based; conditions: for IC50: Aβ 25 μM, assayed 5 days after Aβ addition
From the text: Various mechanisms have been put forward in order to account for the neurotoxicity related to extracellular Aβ fibril formation. […] Regardless of the mode of action, extracellular Aβ fibril formation acts as an effective apoptotic trigger for neuronal cells and serves as an in vitro model for various neurodegenerative diseases characterized by extracellular protein fibril formation, typified by diseases such as AD and PD.
CGNs were harvested from day 8/9 post-natal CD1 mice, plated on Poly-D-Lycine coated plates and incubated for 6 days at 37° C. under 5% CO2. Pretreated cells were treated with drug 24 hours prior to A-β (25 μM) and drug addition.

CGNs [2] = assay: Glutamate Killing of CGNs; assay type: cell-based, CD1 mice; conditions: glutamate 100 uM
From the text: Glutaminergic neurons secrete the neurotransmitter glutamate as a part of normal cell signaling processes. Intracellular glutamate levels are regulated by glial cell uptake and conversion to glutamine. Under conditions of oxidative stress, as observed in various neurodegenerative diseases such as stroke, ALS, PD, and HD, glutaminergic neurons release massive amounts of glutamate into the […] fluid, overwhelming the surrounding cells. Stimulation of both NMDA and non NMDA-type glutamate excitory receptors leads to sustained depolarization of postsynaptic dendrosomal membranes, increased membrane permeability, and impaired ion homeostasis, all leading to either apoptotic or necrotic cell death.
CGNs were harvested from day 8/9 post-natal CD1 mice, plated on Poly-D-Lycine coated plates and incubated for 6 days at 37° C. under 5% CO2. Cells were pretreated with drug 24 hours prior to glutamate (100 uM) and drug addition.

CGNs [3] = assay: Ceramide Killing of CGNs; assay type: cell-based, CD1 mice; conditions: ceramide 100 uM
From the text: Ceramide is a native […] found in most mammalian and human cells. The upregulation of endogenous ceramide has been linked to caspase 1 (ICE) induced apoptosis (Suzuki, A. et al. Exp. Cel. Res., 1997, 233, 41). In a similar fashion, the addition of ceramide to cultured CGNs results in caspase induced apoptosis, and is therefore considered an effective in vitro model for the various neurodegenerative diseases described above, which are characterized by caspase induced apoptosis, as observed in stroke models. Addition of selected compounds of the formula I through III, 24 hours prior to the addition of ceramide, to cultured CGNs provided protection against apoptosis, with 10 to 20% of the cells being saved at 1–10 μM drug concentrations (see Example 114).
CGNs were harvested from day 8/9 post-natal CD1 mice, plated on Poly-D-Lycine coated plates and incubated for 6 days at 37° C. under 5% CO2. Cells were pretreated with drug 24 hours prior to ceramide (100 uM) and drug addition.

CGNs [4] = assay: Cisplatin Killing of CGNs; assay type: cell-based, CD1 mice; conditions: for survival: 300 nM drug, cisplatin
Method: Cisplatin has been used extensively in the treatment of various cancers. One dosblimiting side effect of this chemotherapeutic agent is related to hearing loss as a result of its toxicity to auditory neurons and loss of feeling in the extremities. Cisplatin induces apoptosis to both cultured CGN and cortical neurons.
CGNs were harvested from day 8/9 post-natal CD1 mice, plated on Poly-D-Lycine coated plates and incubated for 6 days at 37° C. under 5% CO2. The cells were treated with media containing drug and cisplatin […].

Cortical neurons = assay: Cisplatin Killing of Cortical Neurons; assay type: cell-based, Sprague-Dawley rats; conditions: for % Protection at 10 μM: drug 10 μM 24 h pre-treatment
Method: Cortical neurons were harvested from day E18 female Sprague-Dawley rats, plated on Poly-L-Lycine coated plates and incubated for 14 days at 37° C. under 5% CO2. […]

HIAP1 mRNA in LAN5 cells = assay: LAN5 HAIP1 Down Regulators (RNA levels); assay type: cell-based; conditions: HIAP1 RNA level vs control = 1.0; 24 hours drug
Method: LAN5 cells were grown in growth media. Cells were plated at cells 50,000 per well in 96 cells per 96 wells. Five days latter drug was added and the cells were liced 24 hours latter using RLT buffer.

[5] = test system: rat spinal cord ex-plants; assay: Spinal Cord Explant neurite extension; assay type: cell-based; conditions: 3 μM; ex-plants on growth inhibitory substrates
From the text: The inability of neurites to regenerate or overcome stimuli which inhibit or prevent the formation of normal neuritic extensions and connections is characteristic of the conditions found in spinal cord and related injuries, AD and the like. Select compounds of this invention promote the formation of neuritic extension in spinal cord ex-plants which have been cultured on growth inhibitory substrates.
Spinal cords from P1 rat pups were isolated for neurite extension analysis. Lumbar cord was separated in two along the spinal canal. […] lateral sections were obtained with a McIlwain tissue chopper. Slices were cultured in poly L-lysine coated 24 well plates in Neurobasal media supplemented with B27, penicillin, streptomycin, and glutamate. Test compounds were added to the media and neurite extension out of the explant onto the poly L-coated plastic was assessed after 7 days in culture. Neurites were visualized either by phase contrast microscopy or by beta 3 tubulin immunofluorescence.

SCG neurons = assay: NGF Withdrawal Killing of SCG Neurons; assay type: cell-based, Sprague-Dawley rats; conditions: Rattus norvegicus, Neuron, assayed 48 hours after drug
From the text: Cultured Superiour Cervical Ganglion (SCG) neurons of the PNS which have been sustained in media containing Neuron Growth Factor (NGF) undergo apoptotic cell death upon removal of the NGF from the cellular medium. Loss of neuronal trofin support has been implicated in various neurodegenerative disease states in the PNS, such as diabetic neuropathy and neuropahies related to chemotherapeutic and anti-HIV drug treatment.
SCG neurons were harvested from day 1 post natal Sprague-Dawley rats, plated on collagen coated plates and incubated for 5 days in the presence of 50 ng/mL NGF at 37° C. under 5% CO2. The cells were washed with NGF free media, 4 times at 1 hour intervals, at which time drug was added.

CGNs [6] = assay: High/Low Potassium (HK/LK) assay in CGNs; assay type: cell-based; conditions: for IC50: Mus musculus, HK/LK switch, drug 24 h pre-treatment, assayed 16 h after media change, concentration at which cell death was inhibited by 50%
Method: Cultured CGNs which are maintained in a medium containing 26 mM potassium (high K^+ or HK) undergo cell death when the medium is changed to one containing 5 mM potassium (low K^+ or LK). HK maintains the cells in a highly polarized state, duplicating that of fully innervated neurons. The switch to LK (5 mM is more representative of physiological conditions) results in depolarization of the cells, mimicking the loss of neuronal conductivity. […] As these killer genes are turned on by various types of neuronal insult as observed in AD, PD, and stroke, HK/LK is a general in vitro model for neuronal degradation, blanketing a wide range of neurodegenerative diseases. Compounds that protect against HK/LK in CGNs would therefore be efficacious in treatment and/or prevention of various neurodegenerative disease states.
CGNs were harvested from day 8/9 post-natal CD1 mice, plated on Poly-D-Lycine coated plates and incubated for 6 days at 37° C., with […] potassium, under 5% CO2. Pretreated cells were treated with drug 24 hours prior to changing the media to one containing […] potassium and drug. Cells were assayed 16 hours after the final media change using cell TITER96 (Promega).

SHSY-5Y cells = assay: Etoposide Killing of SHSY-5Y; assay type: cell-based; conditions: etoposide 32 uM, drug 1 μM
Method: SHSY-5Y cells were grown in growth media. Cells are placed at 50,000 cells per 96 well. Four days latter the cells were treated with drug for 48 hours prior to etoposide (32 uM) treatment. On day 6 media was changed to that containing etoposide and drug for 4 hours, at which point the media was changed to media containing drug only. Cells are allowed to survive overnight and then assessed for viability with metabolic activity measured (WST-1-Beohringer Mannheime), as shown in TABLE 13.

[7] = test system: OV 2008 ovarian cancer cells; assay: Cisplatin induced apoptosis of OV 2008 ovarian cancer cells; assay type: cell-based; conditions: cisplatin (20 μg/mL)
From the text: Regardless of its neuroprotective capability, if a compound interferes with chemotherapy by protecting cancer cells from an apoptotic stimuli then the compound is of less value as an anti-cancer therapeutic.

[8] = assayed 48 hours after final drug treatment
[9] = cisplatin induced apoptosis in CGNs
[10] = Mus musculus, assayed 48 hours after final drug treatment

SMILES	% CGN Survival (CGNs [2]; drug 100 nM) [%]	% CGN Survival (CGNs [2]; drug 1 μM) [%]	% CGN Survival (CGNs [3]; drug 1 μM) [%]	% CGN Survival (CGNs [3]; drug 10 μM) [%]	% Protection at 10 μM (Cortical neurons)	IC50 (CGNs [1]; Mus musculus, 120 h) [nM]	IC50 (CGNs [4]; [10]) [nM]	further results
O=C1C=C(c2c[nH]c3ccc(OCc4ccccc4)cc23)C(=O)N1 [Compound 64, 3-(1-H-5-benzyloxyindol-3-yl)-1H-pyrrole-2,5-dione]	0	4.0	18.0	5.1				inhibition of caspase 3 induction (Caspase 3; 10 μM): 33%; IC50 (CGNs [1]): 1000 nM; % CGN Survival (CGNs [2]; drug 10 μM): 32.5%; IC50 (CGNs [4]; [8]): 3000 nM
O=C1NC(=O)C2=C1c1c([nH]c3ccc(OCc4ccccc4)cc13)C1Cc3ccccc3N21 (stereo not drawn) [Compound 35]					10% and 11%			survival (CGNs [4]): 80%; IC50 (CGNs [4]; [9]): 100 nM
O=C1NC(=O)c2c1c1c3ccccc3[nH]c1c1nc3ccccc3n21 [Compound 53]					41%			
COc1ccc2c(c1)c(C1=CC(=O)NC1=O)cn2S(=O)(=O)c1ccc(C)cc1 [Compound 87, 3-(N-tosyl-5-methoxyindol-3-yl)-1H-pyrrole-2,5-dione]	0	11.5	0	9.1		10000		Fold Induction (HIAP1 mRNA in LAN5 cells): 0.37
O=C1NCC2=C1N1c3ccccc3CC1c1c2c2ccccc2n1CCCO (stereo not drawn) [Compound 176]								formation of neuritic extensions [5]: induce the formation of neuritic extensions
O=C1NC(=O)c2c1c1c3cc(OCc4ccccc4)ccc3[nH]c1c1cc3ccccc3n21 [Compound 52]					50% and 40%			IC50 (CGNs [4]; [8]): 3000 nM
O=C1NC(=O)c2c1c1c3ccccc3[nH]c1c1cc3ccccc3n21 [Compound 42]			20.0	18.0		1000	3000	inhibition at 10 µM (Caspase 3; Mus musculus): 50%; IC50 (SCG neurons): 20000 nM; IC50 (CGNs [6]): 3000 nM
COc1ccc2c(c1)c1c3c(n4c5ccccc5cc4c1n2C(=O)COC(C)=O)C(=O)NC3=O [Compound 51]					20% and 23%		1000	
CCSCc1ccc2c(c1)c1c3c(c4c5cc(CSCC)ccc5n5c4c1n2[C@H]1C[C@](O)(C(=O)OC)[C@]5(C)O1)CNC3=O [CEP 1347, reference compound]	0	7.0	1.8					protection (CGNs [1]; concentrations below 300 nM): > 10%; % CGN Survival (CGNs [2]; 300 nM, (250 nM in source)): 50.0 (250 nM) %; % SHSY-5Y cell survival (SHSY-5Y cells): 12.5%; % Protection (Cortical neurons; drug at 0.3 μM, cisplatin): 32%; % CGN Survival (CGNs [3]; 300 nM, (250 nM in source)): 0 (250 nM) %; IC50 (CGNs [6]): 1000 nM; toxicity (CGNs [6]; higher doses): toxic at higher doses
O=C1NC(=O)C2=C1c1c(n(CCO)c3ccc(OCc4ccccc4)cc13)C1Cc3ccccc3N21 (stereo not drawn) [Compound 36]					9%			protection of cancer cells from cisplatin induced apoptosis [7]: did not protect; survival (CGNs [4]): 80%; IC50 (CGNs [4]; [9]): 100 nM
O=C1NC(=O)C2=C1c1c([nH]c3ccccc13)C1Cc3ccccc3N21 (stereo not drawn) [Compound 24]	0	17.0	11.4	10.7		10000	3000	% CGN Survival (CGNs [2]; drug 10 μM): 22.3%; IC50 (CGNs [6]): 10000 nM
COc1ccc2[nH]cc(C3=C(n4ccc5ccccc54)C(=O)NC3=O)c2c1 [Compound 2, 3-(5-Methoxyindol-3-yl)-4-(indol-1-yl)-1H-pyrrole-2,5-dione]						10000	10000	
